Measured values published in patent US20180185408A1, “ANTIFUNGAL NYLON-3 POLYMERS AND COMBINATION THERAPY USING THEM TO TREAT FUNGAL INFECTIONS” (priority 2016, published 2018).
≈ marks a conversion by molar mass, not a printed value. Where “and” joins values, the source holds several entries; their conditions need not be identical. Equal entries are not always repeated. Where two headings read alike, the source gives them in different places.

Assays:
[1] = tested on: Cryptococcus neoformans; assay: Checkerboard microdilution synergy (FIC); settings: for FIC / MIC alone / MIC combo: AMB and MM:TM
[2] = tested on: Aspergillus terreus; assay: microbe, parasite or virus in culture
[3] = tested on: Aspergillus fumigatus; assay: Checkerboard microdilution synergy (FIC); type: cell-based; settings: for MIC: Aspergillus fumigatus
[4] = tested on: Aspergillus spp.; assay: microbe, parasite or virus in culture
[5] = tested on: Aspergillus fumigatus; assay: microbe, parasite or virus in culture
[6] = H99, […]10^5 cells/mL, 30°C, OD600 48 h, Avg.
[7] = H99, […]10^5 cells/mL, 30°C, OD600 48 h, trial 1
[8] = H99, […]10^5 cells/mL, 30°C, OD600 48 h, trial 2
[9] = MM:TM (40:60) with Amp B, isolate H99 (Amp B Sensitive), […]10^5 cells/mL, 30° C.
[10] = NM20 with Amp B, isolate H99, […] 10^5 cells/mL
[11] = Table 41, MM:TM with Amp B, isolate H99, […] 10^5 cells/mL
[12] = MM:TM with Itraconazole, isolate F11628 (Resistance), […] 10^5 cells/mL
[13] = MM:TM with Itraconazole, isolate F16216 (Resistance), […] 10^5 cells/mL
[14] = MM:TM with ITRA, isolate 08-12-12-13 Cyp51 [TR34/L98H], Avg., 48 hours, 35° C.
[15] = MM:TM with ITRA, isolate 08-19-02-61 Cyp51 [TR34/L98H], Avg., 48 hours, 35° C.
[16] = MM:TM with ITRA, isolate 08-31-08-91 Cyp51 [TR34/L98H], Avg., 48 hours, 35° C.
[17] = MM:TM with ITRA, isolate 08-36-03-25 Cyp51 [TR34/L98H], Avg., 48 hours, 35° C.
[18] = MM:TM with ITRA, isolate 12-7505220 Cyp51 [TR34/L98H], Avg, 48 hours, 35° C.
[19] = MM:TM with ITRA, isolate 12-7505446 Cyp51 [TR34/L98H], Avg., 48 hours, 35° C.
[20] = MM:TM with ITRA, isolate D5 Cyp51 [G54E], Avg., 48 hours, 35° C.
[21] = MM:TM with ITRA, isolate D6 Cyp51 [G54V], Avg., 48 hours, 35° C.
[22] = MM:TM with ITRA, isolate D9 Cyp51 [M220K], Avg., 48 hours, 35° C.

C[C@@H]1[C@H](O)[C@@H](C)/C=C/C=C/C=C/C=C/C=C/C=C/C=C/[C@H](O[C@@H]2O[C@H](C)[C@@H](O)[C@H](N)[C@@H]2O)C[C@@H]2O[C@](O)(C[C@@H](O)C[C@@H](O)[C@H](O)CC[C@@H](O)C[C@@H](O)CC(=O)O[C@H]1C)C[C@H](O)[C@H]2C(=O)O [AMB, amphotericin B]
decrease of the MIC of AMB in combination with MM:TM ([1]; H99): > 10 fold
MIC Combined ([1]; H99, AMB and MM:TM in combination, […]10^5 cells/mL, 30°C, OD600 48 h): 0.16 µM
FIC ([1]; H99, Avg.): 0.05
MIC alone [1, 6]: 3.1 µg/mL
MIC combo [1, 6]: 0.15 µg/mL
MIC alone [1, 7]: 3.1 µg/mL
MIC combo [1, 7]: 0.2 µg/mL
MIC alone [1, 8]: 3.1 µg/mL
MIC combo [1, 8]: 0.1 µg/mL
MIC alone ([1]; H99, single agent, […]10^5 cells/mL, 30°C, OD600 48 h): 3.4 µM
FIC ([1]; H99, trial 1): 0.06
FIC ([1]; H99, trial 2): 0.03
MIC AMB alone ([1]; H99, AMB as single agent, OD600, 48 h, 30° C.): 3.4 µM
MIC AMB combination ([1]; H99, AMB in combination with MM:TM, OD600, 48 h, 30° C.): 0.1 µM and 0.16 µM and 0.2 µM
FICAMB ([1]; H99, AMB with MM:TM): 0.03 and 0.05 and 0.06
FICAmp B [1, 9]: 0.09
MIC Amp B alone [1, 9]: 1.6 µg/mL
MIC Amp B in combination [1, 9]: 0.15 µg/mL
MIC AMB alone [1, 10]: 3.1 µg/mL
MIC AMB in combination [1, 10]: 0.1 µg/mL
MIC Amp B alone [1, 11]: 1.6 µg/mL
MIC Amp B in combination [1, 11]: 0.15 µg/mL

CCC(C)n1ncn(-c2ccc(N3CCN(c4ccc(OCC5COC(Cn6cncn6)(c6ccc(Cl)cc6Cl)O5)cc4)CC3)cc2)c1=O (stereo not drawn) [Itraconazole, itraconazole]
MIC [2]: 1.4 µM (≈ 0.988 µg/mL)
MIC ([2]; 48 h): 1 µg/mL and 1.4 µM
MIC azole combination ([3]; 08-19-02-61 Cyp51 [TR34/L98H], ITRA in combination with MM:TM, OD600, 48 h, 35° C.): >48 µg/mL and 48 µg/mL
FICazole ([3]; 08-19-02-61 Cyp51 [TR34/L98H], ITRA with MM:TM): 1.000 and 0.500
MIC azole combination ([3]; 08-31-08-91 Cyp51 [TR34/L98H], ITRA in combination with MM:TM, OD600, 48 h, 35° C.): >48 µg/mL
FICazole ([3]; 08-31-08-91 Cyp51 [TR34/L98H], ITRA with MM:TM): 1.000
MIC azole combination ([3]; 08-36-03-25 Cyp51 [TR34/L98H], ITRA in combination with MM:TM, OD600, 48 h, 35° C.): >48 µg/mL
FICazole ([3]; 08-36-03-25 Cyp51 [TR34/L98H], ITRA with MM:TM): 1.000
FICazole ([3]; AF293, ITRA with MM:TM): 0.143 and 0.198 and 0.210
MIC ([3]; 48 h, CEA10, ITRA as single agent, 35° C.): > 1 µg/mL
MIC ([3]; 48 h, CEA10, MM:TM with Itraconazole, single agent, 48 h, read-out: MIC Alone): > 1.4 µM
MIC ([3]; 48 h, F11628, ITRA as single agent, 35° C.): 48 µg/mL
MIC ([3]; 48 h, F16216, ITRA as single agent, 35° C.): 32 µg/mL
MIC ([3]; 48 h, MM:TM with ITRA, […], Avg., 48 hours, 35° C.): 1.06 µM
MIC [3, 12]: 48 µg/mL
MIC [3, 13]: 32 µg/mL
MIC Combined ([3]; CEA10, MM:TM with Itraconazole in combination, 48 h): 0.3 µM
MIC azole combination ([3]; D5 Cyp51 [G54E], ITRA in combination with MM:TM, OD600, 48 h, 35° C.): >48 µg/mL
FICazole ([3]; D5 Cyp51 [G54E], ITRA with MM:TM): 1.000
MIC azole combination ([3]; D7 Cyp51 [WT], ITRA in combination with MM:TM, OD600, 48 h, 35° C.): 0.19 µg/mL and 0.375 µg/mL
FICazole ([3]; D7 Cyp51 [WT], ITRA with MM:TM): 0.253 and 0.500
MIC azole combination ([3]; D9 Cyp51 [M220K], ITRA in combination with MM:TM, OD600, 48 h, 35° C.): >48 µg/mL
FICazole ([3]; D9 Cyp51 [M220K], ITRA with MM:TM): 1.000
MIC azole combination ([3]; F11628, ITRA in combination with MM:TM, OD600, 48 h, 35° C.): 1.06 µM
MIC azole combination ([3]; F16216, ITRA in combination with MM:TM, OD600, 48 h, 35° C.): 85.03 µM
FICazole ([3]; F16216, ITRA with MM:TM): 0.750 and 1.000 and 0.938
MIC azole combination ([3]; MM:TM with ITRA, […], Avg., 48 hours, 35° C.): 0.4 µM
FICazole [3, 14]: 0.917
MIC azole combination [3, 14]: 70.15 µM
FICazole [3, 15]: 0.75
MIC azole combination [3, 15]: 102.04 µM
FICazole [3, 16]: 1.000
MIC azole combination [3, 16]: >68.02 µM
FICazole [3, 17]: 1.000
MIC azole combination [3, 17]: >68.02 µM
FICazole [3, 18]: 0.917
MIC azole combination [3, 18]: 70.15 µM
FICazole [3, 19]: 0.035
MIC azole combination [3, 19]: 0.67 µM
FICazole [3, 20]: 1.000
MIC azole combination [3, 20]: >68.02 µM
FICazole [3, 21]: 0.172
MIC azole combination [3, 21]: 18.96 µM
FICazole [3, 22]: 1.000
MIC azole combination [3, 22]: >68.02 µM
FICazole [3, 12]: 0.008
FICazole [3, 13]: 1.000
increase in efficacy in the presence of MM:TM ([3]; azole-resistant strain F11628): > 100 fold
MIC [4]: ~1 µM (≈ 0.706 µg/mL)
MIC ([5]; 48 h, A. fumigatus AF293, visually, 1 × 10^5 cells/mL, 35° C.): 1 µg/mL and 1.4 µM
MIC ([5]; 48 h, A. fumigatus CEA10, visually, 1 × 10^5 cells/mL, 35° C.): > 1 µg/mL and > 1.4 µM
MIC ([5]; 48 h, A. fumigatus F11628, visually, 1 × 10^5 cells/mL, 35° C.): 48 µg/mL and 68.5 µM
MIC ([5]; 48 h, A. fumigatus F16216, visually, 1 × 10^5 cells/mL, 35° C.): 32 µg/mL and 45.3 µM
MIC ([5]; A. fumigatus AF293): 1.4 µM (≈ 0.988 µg/mL)
MIC ([5]; A. fumigatus CEA10): > 1.4 µM
MIC ([5]; A. fumigatus F11628): 68 µM (≈ 48 µg/mL)
MIC ([5]; A. fumigatus F16216): 45.3 µM (≈ 32 µg/mL)
MIC ([5]; azole resistant strain F11628): > 45 µM
MIC ([5]; strain F16216): 45.3 µM (≈ 32 µg/mL)
